Consider three compounds from patent publication US10730905B2, “Substituted heteropentadieno-pyrrolopyrimidine ribonucleosides for therapeutic use” (USTAV ORGANICKE CHEMIE A BIOCHEMIE AV CR, V.V.I., priority 2016, dated 2020).

For series [1], the system named is K562-Tax (human acute myeloid leukemia, paclitaxel resistant subline). In words: MTT cytotoxic test, K562-TAX. In kind it is cell-based. The settings on record: K562-TAX cells. From the text:
(§1) MTT test (Nosková V. et al., Neoplasma 2002, 49, 418-425) was used for in vitro evaluation of antitumor activities of newly synthesized compounds on cell lines derived from normal tissues or tumors. Specifically, cell lines K562 (human acute myeloid leukemia); K562-Tax (human acute myeloid leukemia, paclitaxel resistant subline, overexpress multiple drug resistant protein PgP); CEM (T-lymfoblastic leukemia); CEM-DNR-bulk (T-lymfoblastic leukemia, doxorubicin resistant); A549 (human lung adenocarcinoma); HCT116p53 wt (human colorectal cancer, wild-type); HCT116p53−/− (human colorectal cancer, mutant p53) a U2OS (human bone osteosarcoma) were used. Express characteristics, susceptibility profiles of classic antitumor drugs as well as methodology of cytotoxic MTT test have been repeatedly published (Denizot, F.; Lang, R., J. Immunol. Meth. 1986, 89, 271-277; Noskova, V., see above; S̆arek J. et al., J, Med. Chem., 2003).

Series [2] concerns HCT116p53−/− (human colorectal cancer, mutant p53). Nature of the series: MTT cytotoxic test, HCT116p53. The settings on record: HCT116p53 cells (p53 −/−). In kind it is cell-based.
Description: as §1

Series [3] has as its system HCT116p53 wt (human colorectal cancer, wild-type). In words: MTT cytotoxic test, HCT116. It is filed as cell-based. The settings on record: HCT-116, HCT116 cells, p53 wild type.
Description: as §1

The subject of series [4] is CCRF-CEM (CEM, T-lymfoblastic leukemia). Nature of the series: MTT cytotoxic test, CCRF-CEM. It is filed as cell-based. The settings on record: Homo sapiens, CCRF-CEM cells.
Description: as §1

For series [5], the system named is CEM-DNR-bulk (T-lymfoblastic leukemia, doxorubicin resistant). Nature of the series: MTT cytotoxic test, CEM-DNR. It is filed as cell-based. The settings on record: Homo sapiens, CEM-DNR cells.
Description: as §1

Series [6] has as its system K562 (human acute myeloid leukemia). Nature of the series: MTT cytotoxic test, K562. In kind it is cell-based. The settings on record: K562 cells.
Description: as §1

Series [7] can be described thus: MTT cytotoxic test, MRC-5. In kind it is cell-based. The settings on record: MRC-5 cells (normal fibroblasts), MRC-5 normal human fibroblasts.
Series [8] concerns U2OS (human bone osteosarcoma). In words: MTT cytotoxic test, U2OS. The settings on record: U2OS cells. In kind it is cell-based.
Description: as §1

Series [9] relates to A549 (human lung adenocarcinoma). Nature of the series: MTT cytotoxic test, A549. In kind it is cell-based. The settings on record: A549 cells.
Description: as §1

As for `CSc1ncnc2c1c1occc1n2[C@@H]1O[C@H](CO)[C@@H](O)[C@H]1O` [Compound 1c], the melting point fell in the range of 213 to 217 °C. This compound had an IC50 in [1] of 0.9 to 10 µM. The same compound displayed an IC50 in series [2] of 0.2 to 0.9 µM. The same compound gave an IC50 in series [3] of 0.2 to 0.9 µM. This compound displayed an IC50 in series [4] of 0.2 to 0.9 µM. Further, the IC50 in [5] lay within 0.9 to 10 µM. Moreover, in series [6], the IC50 fell in the range of 0.2 to 0.9 µM. Moreover, the IC50 in series [7] is 0.9 to 10 µM. In [8], this compound came in with an IC50 of 0.2 to 0.9 µM. The IC50 in series [9] lay in the range of 0.9 to 10 µM.
Take `Cn1ccc2c1c1c(N)ncnc1n2[C@@H]1O[C@H](CO)[C@@H](O)[C@H]1O` [Compound 2d, 5-methyl-8-(β-D-ribofuranosyl)-5,8-dihydropyrrolo[2′,3′:4,5]pyrrolo[2,3-d]pyrimidin-4-amine]: the melting point was 240 to 245 °C (dec.). The compound also showed an IC50 in series [1] of 25 to 50 µM. The compound also returned an IC50 in series [2] of 25 to 50 µM. In series [3], this compound displayed an IC50 of 25 to 50 µM. Besides, the IC50 in series [4] was in the range of 25 to 50 µM. For the same compound, the IC50 in series [5] lay in the range of 25 to 50 µM. In [6], this compound came in with an IC50 of 25 to 50 µM. The compound also came in with a concentration for half-maximal inhibition (IC50) in series [7] of 25 to 50 µM. Besides, the IC50 in [8] was in the range of 25 to 50 µM. Besides, the IC50 in [9] lay in the range of 25 to 50 µM.
`Cn1ccc2c1c1c(-c3cc4ccccc4o3)ncnc1n2[C@@H]1O[C@H](CO)[C@@H](O)[C@H]1O` [Compound 2g, 4-(Benzofuran-2-yl)-5-methyl-8-(β-D-ribofuranosyl)-5,8-dihydropyrrolo[2′,3′:4,5]pyrrolo[2,3-d]pyrimidine] had a melting point of 145 to 154 °C. The compound also yielded an IC50 in series [1] of 25 to 50 µM. In series [2], this compound showed an IC50 of 25 to 50 µM. For the same compound, the IC50 in series [3] was 25 to 50 µM. Besides, the IC50 in [4] was 10 to 25 µM. In addition, in [5], the IC50 was in the range of 25 to 50 µM. In series [6], this compound had an IC50 of 25 to 50 µM. The IC50 in [7] fell in the range of 25 to 50 µM. In [8], the IC50 was 25 to 50 µM. The IC50 in [9] fell in the range of 25 to 50 µM.
